The source of these data is ChEMBL document CHEMBL5614375, “PepExplainer: An explainable deep learning model for selection-based macrocyclic peptide bioactivity prediction and optimization” (Eur J Med Chem, 2024).

SMILES strings stand for the structures. pIC50: −log10 of the molar value. Bridge positions count the residues as written; N and C are the ends. Peptide text beside a SMILES is read from it.

The experiment deals with T1, IL17-RE-IL-17C (Homo sapiens, UniProt Q8NFR9+Q9P0M4).
T1 sequence (Q9P0M4 whole entry): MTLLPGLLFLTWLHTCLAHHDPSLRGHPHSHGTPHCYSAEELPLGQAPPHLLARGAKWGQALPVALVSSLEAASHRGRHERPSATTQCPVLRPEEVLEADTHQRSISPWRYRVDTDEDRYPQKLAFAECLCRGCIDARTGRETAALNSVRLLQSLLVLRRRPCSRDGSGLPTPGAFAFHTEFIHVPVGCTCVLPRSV
T1 sequence (Q8NFR9 whole entry): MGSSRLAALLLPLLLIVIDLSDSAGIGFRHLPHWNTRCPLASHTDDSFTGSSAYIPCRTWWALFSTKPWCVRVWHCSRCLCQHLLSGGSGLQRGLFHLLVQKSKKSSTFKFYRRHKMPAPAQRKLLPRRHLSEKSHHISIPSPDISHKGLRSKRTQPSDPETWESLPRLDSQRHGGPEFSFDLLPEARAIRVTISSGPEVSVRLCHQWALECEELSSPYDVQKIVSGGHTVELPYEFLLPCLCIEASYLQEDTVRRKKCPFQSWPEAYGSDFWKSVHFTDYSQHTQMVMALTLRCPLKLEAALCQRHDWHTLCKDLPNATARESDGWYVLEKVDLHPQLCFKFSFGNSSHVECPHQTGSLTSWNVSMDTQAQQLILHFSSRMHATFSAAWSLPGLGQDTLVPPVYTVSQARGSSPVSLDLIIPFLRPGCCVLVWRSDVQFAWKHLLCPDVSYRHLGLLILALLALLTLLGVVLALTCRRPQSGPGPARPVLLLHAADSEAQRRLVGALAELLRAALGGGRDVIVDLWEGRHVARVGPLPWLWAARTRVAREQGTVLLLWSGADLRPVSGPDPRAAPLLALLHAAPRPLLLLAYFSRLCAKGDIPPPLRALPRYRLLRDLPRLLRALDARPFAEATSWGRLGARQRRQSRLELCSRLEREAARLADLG
Nature of the experiment: Inhibition of interleukin-17RE/biotinylated IL-17C protein-protein interaction (unknown origin) incubated for 1 hrs by competitive ELISA. The experiment is classed as protein-complex assay. A general note: ELISA stands for enzyme-linked immunosorbent assay.
`CC[C@H](C)[C@@H]1NC(=O)[C@H](CCCNC(=N)N)NC(=O)[C@H](Cc2ccc(O)cc2)NC(=O)[C@H](Cc2ccc(O)cc2)NC(=O)[C@H](Cc2c[nH]cn2)NC(=O)[C@H](Cc2c[nH]cn2)NC(=O)[C@H](Cc2ccc(O)cc2)NC(=O)CSC[C@@H](C(=O)NCC(N)=O)NC(=O)CNC(=O)[C@H](CC(C)C)NC(=O)[C@H](CC(N)=O)NC(=O)CNC(=O)[C@H](Cc2ccc(O)cc2)NC(=O)[C@H](CC(C)C)NC1=O` ({CH2CO}-YHHYYRILYGNLGCG-NH2; thioether N-14) had a pIC50 of 7.33.
The compound `CC[C@H](C)[C@@H]1NC(=O)[C@H](CCCNC(=N)N)NC(=O)[C@H](Cc2ccc(O)cc2)NC(=O)[C@H](Cc2ccc(O)cc2)NC(=O)[C@H](CC(C)C)NC(=O)[C@H](Cc2c[nH]cn2)NC(=O)[C@H](Cc2ccc(O)cc2)NC(=O)CSC[C@@H](C(=O)NCC(N)=O)NC(=O)CNC(=O)[C@H](CC(C)C)NC(=O)[C@H](CCC(=O)O)NC(=O)CNC(=O)[C@H](Cc2ccc(O)cc2)NC(=O)[C@H](CC(C)C)NC1=O` ({CH2CO}-YHLYYRILYGELGCG-NH2; thioether N-14) showed a pIC50 of 7.17.
In turn, `CC(C)C[C@@H]1NC(=O)[C@H](CC(=O)O)NC(=O)CNC(=O)[C@H](Cc2ccc(O)cc2)NC(=O)[C@H](CC(C)C)NC(=O)[C@H](CO)NC(=O)[C@H](CCCNC(=N)N)NC(=O)[C@H](Cc2ccc(O)cc2)NC(=O)[C@H](CC(N)=O)NC(=O)[C@H](Cc2c[nH]cn2)NC(=O)[C@H](Cc2c[nH]cn2)NC(=O)[C@H](Cc2ccc(O)cc2)NC(=O)CSC[C@@H](C(=O)NCC(N)=O)NC(=O)CNC1=O` ({CH2CO}-YHHNYRSLYGDLGCG-NH2; thioether N-14) showed a negative logarithm of the IC50 (pIC50) of under 4.52.
`CC[C@H](C)[C@@H]1NC(=O)[C@H](CCCNC(=N)N)NC(=O)[C@H](Cc2ccc(O)cc2)NC(=O)[C@H](Cc2ccc(O)cc2)NC(=O)[C@H](Cc2c[nH]cn2)NC(=O)[C@H](Cc2c[nH]cn2)NC(=O)[C@H](Cc2ccc(O)cc2)NC(=O)CSC[C@@H](C(=O)NCC(N)=O)NC(=O)CNC(=O)[C@H](CC(C)C)NC(=O)[C@H](CCCCN)NC(=O)CNC(=O)[C@H](Cc2ccc(O)cc2)NC(=O)[C@H](CC(C)C)NC1=O` ({CH2CO}-YHHYYRILYGKLGCG-NH2; thioether N-14) had a pIC50 of 7.14.
In turn, `CC[C@H](C)[C@@H]1NC(=O)[C@H](CC(N)=O)NC(=O)[C@H](Cc2ccc(O)cc2)NC(=O)[C@H](Cc2ccc(O)cc2)NC(=O)[C@H](Cc2c[nH]cn2)NC(=O)[C@H](Cc2c[nH]cn2)NC(=O)[C@H](Cc2ccc(O)cc2)NC(=O)CSC[C@@H](C(=O)NCC(N)=O)NC(=O)CNC(=O)[C@H](CC(C)C)NC(=O)[C@H](CCC(=O)O)NC(=O)CNC(=O)[C@H](Cc2ccc(O)cc2)NC(=O)[C@H](CC(C)C)NC1=O` ({CH2CO}-YHHYYNILYGELGCG-NH2; thioether N-14) gave a pIC50 of 5.63.
For `CC(C)C[C@@H]1NC(=O)[C@H](C)NC(=O)[C@H](CCCNC(=N)N)NC(=O)[C@H](Cc2ccc(O)cc2)NC(=O)[C@H](Cc2ccc(O)cc2)NC(=O)[C@H](Cc2c[nH]cn2)NC(=O)[C@H](Cc2c[nH]cn2)NC(=O)[C@H](Cc2ccc(O)cc2)NC(=O)CSC[C@@H](C(=O)NCC(N)=O)NC(=O)CNC(=O)[C@H](CC(C)C)NC(=O)[C@H](CCC(=O)O)NC(=O)CNC(=O)[C@H](Cc2ccc(O)cc2)NC1=O` ({CH2CO}-YHHYYRALYGELGCG-NH2; thioether N-14), the negative logarithm of the IC50 (pIC50) was 6.60.
For `CC[C@H](C)[C@@H]1NC(=O)[C@H](CCCCN)NC(=O)[C@H](Cc2ccc(O)cc2)NC(=O)[C@H](Cc2ccc(O)cc2)NC(=O)[C@H](Cc2c[nH]cn2)NC(=O)[C@H](Cc2c[nH]cn2)NC(=O)[C@H](Cc2ccc(O)cc2)NC(=O)CSC[C@@H](C(=O)NCC(N)=O)NC(=O)CNC(=O)[C@H](CC(C)C)NC(=O)[C@H](CCC(=O)O)NC(=O)CNC(=O)[C@H](Cc2ccc(O)cc2)NC(=O)[C@H](CC(C)C)NC1=O` ({CH2CO}-YHHYYKILYGELGCG-NH2; thioether N-14), the pIC50 was 6.94.
As for `CC[C@H](C)[C@@H]1NC(=O)[C@H](Cc2c[nH]cn2)NC(=O)[C@H](Cc2ccc(O)cc2)NC(=O)CSC[C@@H](C(=O)NCC(N)=O)NC(=O)CNC(=O)[C@H](CC(C)C)NC(=O)[C@H](CC(N)=O)NC(=O)CNC(=O)[C@H](Cc2ccc(O)cc2)NC(=O)[C@H](CC(C)C)NC(=O)[C@H](CO)NC(=O)[C@H](C)NC(=O)[C@H](Cc2ccc(O)cc2)NC(=O)[C@H](Cc2ccc(O)cc2)NC1=O` ({CH2CO}-YHIYYASLYGNLGCG-NH2; thioether N-14), the negative logarithm of the IC50 (pIC50) is 8.85.
Compound `CC(C)C[C@@H]1NC(=O)[C@H](CC(=O)O)NC(=O)CNC(=O)[C@H](Cc2ccc(O)cc2)NC(=O)[C@H](CC(C)C)NC(=O)[C@H](CO)NC(=O)[C@H](CCCNC(=N)N)NC(=O)[C@H](Cc2ccc(O)cc2)NC(=O)[C@H](Cc2ccc(O)cc2)NC(=O)[C@H](Cc2c[nH]cn2)NC(=O)[C@H](CCC(N)=O)NC(=O)[C@H](Cc2ccc(O)cc2)NC(=O)CSC[C@@H](C(=O)NCC(N)=O)NC(=O)CNC1=O` ({CH2CO}-YQHYYRSLYGDLGCG-NH2; thioether N-14) had a pIC50 of under 4.52.
As to `CC[C@H](C)[C@@H]1NC(=O)[C@H](CCCNC(=N)N)NC(=O)[C@H](Cc2ccc(O)cc2)NC(=O)[C@H](Cc2ccc(O)cc2)NC(=O)[C@H](CCC(N)=O)NC(=O)[C@H](Cc2c[nH]cn2)NC(=O)[C@H](Cc2ccc(O)cc2)NC(=O)CSC[C@@H](C(=O)NCC(N)=O)NC(=O)CNC(=O)[C@H](CC(C)C)NC(=O)[C@H](CCC(=O)O)NC(=O)CNC(=O)[C@H](Cc2ccc(O)cc2)NC(=O)[C@H](CC(C)C)NC1=O` ({CH2CO}-YHQYYRILYGELGCG-NH2; thioether N-14), the pIC50 is 7.82.
Under `CC(C)C[C@@H]1NC(=O)[C@H](CC(=O)O)NC(=O)CNC(=O)[C@H](Cc2ccc(O)cc2)NC(=O)[C@H](CC(C)C)NC(=O)[C@H](CO)NC(=O)[C@H](CCCNC(=N)N)NC(=O)[C@H](Cc2c[nH]cn2)NC(=O)[C@H](Cc2ccc(O)cc2)NC(=O)[C@H](Cc2c[nH]cn2)NC(=O)[C@H](Cc2c[nH]cn2)NC(=O)[C@H](Cc2ccc(O)cc2)NC(=O)CSC[C@@H](C(=O)NCC(N)=O)NC(=O)CNC1=O` ({CH2CO}-YHHYHRSLYGDLGCG-NH2; thioether N-14) stands under 4.52.
Regarding `CC[C@H](C)[C@@H]1NC(=O)[C@H](Cc2c[nH]cn2)NC(=O)[C@H](Cc2ccc(O)cc2)NC(=O)CSC[C@@H](C(=O)NCC(N)=O)NC(=O)CNC(=O)[C@H](CC(C)C)NC(=O)[C@H](CC(=O)O)NC(=O)CNC(=O)[C@H](Cc2ccc(O)cc2)NC(=O)[C@H](CC(C)C)NC(=O)[C@H](CO)NC(=O)[C@H](CCCNC(=N)N)NC(=O)[C@H](Cc2ccc(O)cc2)NC(=O)[C@H](Cc2ccc(O)cc2)NC1=O` ({CH2CO}-YHIYYRSLYGDLGCG-NH2; thioether N-14), the negative logarithm of the IC50 (pIC50) is 8.77.
Under `CC[C@@H](C)[C@@H]1NC(=O)[C@H](CCCNC(=N)N)NC(=O)[C@H](Cc2ccc(O)cc2)NC(=O)[C@H](Cc2ccc(O)cc2)NC(=O)[C@H](CCC(N)=O)NC(=O)[C@H](Cc2c[nH]cn2)NC(=O)[C@H](Cc2ccc(O)cc2)NC(=O)CSC[C@@H](C(=O)NCC(N)=O)NC(=O)CNC(=O)[C@H](CC(C)C)NC(=O)[C@H](CC(N)=O)NC(=O)CNC(=O)[C@H](Cc2ccc(O)cc2)NC(=O)[C@H](CC(C)C)NC1=O` stands 8.25.

Broadly, the pIC50 is −log10 of the IC50, conventionally taken in molar units.
